Experimental findings from publication PMC9775191, “A Subset Screen of the Compounds Australia Scaffold Library Identifies 7-Acylaminodibenzoxazepinones as Potent and Selective Hits for Anti-Giardia Drug Discovery” (Biomedicines, 2022) are described below.

The test system of the first assay is G. duodenalis BRIS/91/HEPU/1279. Kind of assay: Primary Giardia screen at 10 µM (live-cell imaging, automated counting). Format: cell-based, Giardia duodenalis. The settings on record: 24 h. The method, boiled down:
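Singlicate, 10 μM final, 0.2% DMSO; sealed chambers, 3% O2/5% CO2/N2. Counts by live-cell imaging at 24 h and 48 h. % growth vs vehicle, media background subtracted; Z' per plate.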
As to `CCc1nc(-c2cc(S(=O)(=O)N(C)c3cccc(C)c3)c(C)s2)no1` [SN00789104], the “Average % Inhibition 24h” value is listed as 14.2%.

Still in this assay, the particulars now being: 24 h, first singlicate assay.
`CCc1nc(-c2cc(S(=O)(=O)N(C)c3cccc(C)c3)c(C)s2)no1` [SN00789104]: the “% Inhibition n=1 24h” value stood at 28.4%.

The same assay, now with this note: 24 h, re-assessment.
As for `CCc1nc(-c2cc(S(=O)(=O)N(C)c3cccc(C)c3)c(C)s2)no1` [SN00789104], the “% Inhibition n=2 24h” value is on record as 0.0%.

The same assay, now with this note: 48 h.
On to `CCc1nc(-c2cc(S(=O)(=O)N(C)c3cccc(C)c3)c(C)s2)no1` [SN00789104], for which the “Average % Inhibition 48h” value was found to be 30.8%.

Still in this assay, the particulars now being: 48 h, first singlicate assay.
Turning to `CC(=O)c1ccc(NC(=O)C2CC(=O)N=C(N3CCN(Cc4ccc5c(c4)OCO5)CC3)N2)cc1` (stereo not shown) [SN00788633], the “% Inhibition n=1 48h” value was 6.8%.

As for `Cn1c(=O)c2c(-c3ccccc3)c(Nc3ccccc3)oc2n(C)c1=O` [SN00788641], the “% Inhibition n=1 48h” value came out at 9.4%.

Take `COc1cc(-c2c(Nc3ccccc3)oc3c2c(=O)n(C)c(=O)n3C)cc(OC)c1OC` [SN00788648]: the “% Inhibition n=1 48h” value is given as 0.0%.

As for `COc1cc2ccccc2cc1C(=O)Nc1nc2c(s1)CN(Cc1ccccc1)CC2` [SN00788706], the “% Inhibition n=1 48h” value is listed as 9.9%.

For `Cc1cccc(N(C)c2ccc3cc(S(=O)(=O)N4CCCC4)ccc3n2)c1` [SN00788730], the “% Inhibition n=1 48h” value is 7.2%.

On to `Cc1ccsc1CCNC(=O)c1cnn2c(=O)c3c(n(C)c12)CCN(Cc1ccccc1)C3` [SN00788935], for which the “% Inhibition n=1 48h” value worked out at 17.0%.

Take `Cc1ccc(-c2nc3ccccc3n2Cc2cccc(F)c2)o1` [SN00788939]: the “% Inhibition n=1 48h” value is 16.3%.

For the compound `O=C(NCCC1=CCCCC1)c1cccn1-c1cccnc1` [SN00788993], the “% Inhibition n=1 48h” value came to 14.0%.

Consider `CC(=O)c1ccc(Nc2ncnc3c2c(C)c(C)n3-c2ccccc2)cc1` [SN00789011], for which the “% Inhibition n=1 48h” value is given as 48.7%.

As for `Cc1c(C)n(-c2ccccc2)c2ncnc(N3CCC(C)CC3)c12` [SN00789013], the “% Inhibition n=1 48h” value was found to be 35.2%.

Regarding `Cc1ccc(S(=O)(=O)n2ccn(C(=O)c3ccccc3C)c2=O)cc1` [SN00789027], the “% Inhibition n=1 48h” value came out at 0.0%.

With `COc1ccccc1C(=O)n1ccn(S(=O)(=O)c2ccc(C)cc2)c1=O` [SN00789029], the “% Inhibition n=1 48h” value amounted to 6.3%.

On to `Cc1ccc(Cl)cc1NC(=O)C1CC2CSCN2C12C(=O)Nc1ccccc12` (stereo not shown) [SN00789076], for which the “% Inhibition n=1 48h” value amounted to 17.2%.

On to `CCc1nc(-c2cc(S(=O)(=O)N(C)c3cccc(C)c3)c(C)s2)no1` [SN00789104], for which the “% Inhibition n=1 48h” value is reported as 48.8%.

On to `Cc1noc(-c2c(C)sc(C)c2S(=O)(=O)NCc2ccccc2)c1C` [SN00789144], for which the “% Inhibition n=1 48h” value was found to be 30.5%.

Turning to `COc1ccc(-n2ccn(CC(=O)Nc3ccc(OC)cc3OC)c2=O)cc1` [SN00789162], the “% Inhibition n=1 48h” value is given as 0.0%.

Consider `Cc1ccccc1S(=O)(=O)N1CCC2(CC1)Nc1ccc(Cl)cc1-n1cccc12` [SN00789223], for which the “% Inhibition n=1 48h” value was determined as 20.1%.

As to `COc1ccc2c(c1)NC1(CCN(C(=O)Cc3ccc(F)cc3)CC1)c1cccn1-2` [SN00789241], the “% Inhibition n=1 48h” value amounted to 5.9%.

For `CCc1nnc(-c2cc3ccccc3n2CC(=O)N2CCCc3ccccc32)o1` [SN00789262], the “% Inhibition n=1 48h” value stood at 0.0%.

In the case of `COC(=O)c1ccc(Cn2c(-c3nnc(C(C)C)o3)cc3ccccc32)cc1` [SN00789282], the “% Inhibition n=1 48h” value was determined as 4.4%.

For the compound `CCn1nnc2cc(C(=O)N(C)CC(=O)NCc3cccc(C)c3)ccc21` [SN00789328], the “% Inhibition n=1 48h” value is 14.4%.

Turning to `O=C1COc2ccc(Cl)cc2N1Cc1nc(Cn2cnc3ccccc3c2=O)no1` [SN00789336], the “% Inhibition n=1 48h” value stood at 0.0%.

Regarding `CCOc1cccc(CC(=O)Nc2ccc3c(c2)C(=O)N(C)C2=NCCN23)c1OCC` [SN00789358], the “% Inhibition n=1 48h” value is reported as 35.6%.

`Cc1cc2c(cc1C)N(CC(=O)NCc1cccs1)C(=O)C1CCCC1=N2` (stereo not shown) [SN00789389]: the “% Inhibition n=1 48h” value is given as 11.1%.

As for `CSc1ccc(-c2noc(-c3ccc4c(=O)n(Cc5ccccc5)c(=O)[nH]c4c3)n2)cc1` [SN00789400], the “% Inhibition n=1 48h” value turned out to be 6.5%.

For the compound `CCCCn1c(=O)[nH]c2cc(-c3nc(-c4ccc(F)cc4)no3)ccc2c1=O` [SN00789403], the “% Inhibition n=1 48h” value was found to be 0.3%.

Take `COc1ccc(Cn2c(=O)c3nccnc3n(Cc3cccc(C)c3)c2=O)cc1` [SN00789526]: the “% Inhibition n=1 48h” value is recorded as 0.0%.

With `CCOC(=O)c1csc(-n2nc(-c3cccc(OC(C)=O)c3)cc2C(F)(F)F)n1` [SN00789527], the “% Inhibition n=1 48h” value worked out at 21.7%.

Regarding `COc1ccc(NC(=O)C2CCn3c(nc4ccccc43)C2)cc1Cl` (stereo not shown) [SN00789545], the “% Inhibition n=1 48h” value is recorded as 0.0%.

Turning to `Cc1ccc(NC(=O)Cn2c(=O)n(Cc3ccc4c(c3)OCO4)c(=O)c3ncccc32)cc1` [SN00789565], the “% Inhibition n=1 48h” value was 0.0%.

Take `COc1ccc(CCn2c(=O)c3ncccc3n(Cc3ccc(C)cc3)c2=O)cc1OC` [SN00789585]: the “% Inhibition n=1 48h” value is on record as 1.7%.

As to `CC(C)c1ccc(S(=O)(=O)N2CCN(c3cc(=O)n4nc(-c5ccccc5)sc4n3)CC2)cc1` [SN00789595], the “% Inhibition n=1 48h” value is on record as 0.0%.

In the case of `COc1ccc(S(=O)(=O)N2CCN(c3cc(=O)n4nc(-c5ccccc5C)sc4n3)CC2)cc1` [SN00789606], the “% Inhibition n=1 48h” value came to 10.6%.

As for `CCCNS(=O)(=O)c1cc(C(=O)N2CCCC2)cs1` [SN00789651], the “% Inhibition n=1 48h” value came to 0.0%.

As for `Cc1ccc(S(=O)(=O)NC(C)c2nc(-c3cccc(C(=O)N4CCCC4)c3)no2)cc1` (stereo not shown) [SN00789753], the “% Inhibition n=1 48h” value amounted to 5.7%.

As to `Cc1nc(-c2cccc(N3CC(C(=O)NCc4ccccc4)CC3=O)c2)no1` (stereo not shown) [SN00789781], the “% Inhibition n=1 48h” value is 0.0%.

As for `O=C(C1CC(=O)N(c2cccc(-c3noc(C4CCC4)n3)c2)C1)N1CCN(c2ccccc2F)CC1` (stereo not shown) [SN00789791], the “% Inhibition n=1 48h” value is reported as 5.7%.

With `COCCNC(=O)C1(C)Cn2c(cc3ccsc32)C(=O)N1c1ccc(OC)c(OC)c1` (stereo not shown) [SN00789817], the “% Inhibition n=1 48h” value is given as 0.0%.

`Cn1nc(C(=O)NCc2ccc3c(c2)OCO3)c2c1CCN(C(=O)C1CCCC1)C2` [SN00789838]: the “% Inhibition n=1 48h” value is listed as 7.0%.

`Cc1ccc(NS(=O)(=O)c2ccc(-c3nnc(C)o3)s2)cc1` [SN00789919]: the “% Inhibition n=1 48h” value amounted to 5.1%.

Take `COc1ccc(NC(=O)c2cn(-c3ccc(-c4noc(C5CCCC5)n4)cc3)nc2C)cc1OC` [SN00789967]: the “% Inhibition n=1 48h” value was 25.5%.

For `Cc1c(N2CCC(C(=O)NC3CCCCCC3)CC2)c(=O)n(CC(C)C)c(=O)n1-c1ccccc1` [SN00790002], the “% Inhibition n=1 48h” value was found to be 9.5%.

For the compound `CCc1ccc(-c2cc(C(=O)N3CCN(c4c(C)n(-c5ccccc5)c(=O)n(C)c4=O)CC3)[nH]n2)cc1` [SN00790031], the “% Inhibition n=1 48h” value was 0.0%.

With `O=C(NCCC1=CCCCC1)C1CCN(c2nc3cccnc3n(Cc3ccccc3)c2=O)CC1` [SN00790039], the “% Inhibition n=1 48h” value was 11.4%.

As for `Cc1noc(C)c1CCNC(=O)C1CCN(c2nc3cccnc3n(C)c2=O)CC1` [SN00790058], the “% Inhibition n=1 48h” value is 15.0%.

On to `CCn1c(=O)c(N2CCCC(C(=O)NCCc3c[nH]c4ccccc34)C2)nc2ccccc21` (stereo not shown) [SN00790077], for which the “% Inhibition n=1 48h” value is 9.8%.

Turning to `COc1cc(NC(=O)C2CCCN(c3nc4ccccc4[nH]c3=O)C2)cc(OC)c1` (stereo not shown) [SN00790089], the “% Inhibition n=1 48h” value is 0.0%.

As for `O=C(Cc1cccs1)Nc1ccc(N2CCN(c3ccccc3F)CC2)cc1C(=O)O` [SN00790111], the “% Inhibition n=1 48h” value is 0.0%.

`Cc1ccc(-n2nc(N3CCC(C(=O)NCC4CCCO4)CC3)ccc2=O)cc1Cl` (stereo not shown) [SN00790174]: the “% Inhibition n=1 48h” value was 0.0%.

Regarding `O=C(Nc1ccc2nc(N3CCCN(c4ncccn4)CC3)cc(C(=O)O)c2c1)c1ccccc1F` [SN00790270], the “% Inhibition n=1 48h” value came out at 0.0%.

`COc1ccccc1CN1CCN(c2cc(C(=O)O)c3cc(NC(C)=O)ccc3n2)CC1` [SN00790290]: the “% Inhibition n=1 48h” value amounted to 39.8%.

`Cc1ccc(CN2CCN(C(=O)C3CCC3)c3cccnc32)cc1` [SN00790417]: the “% Inhibition n=1 48h” value amounted to 4.2%.

With `COc1ccc(OCC(=O)N2CCN(Cc3ccc(C)cc3)c3ncccc32)cc1` [SN00790421], the “% Inhibition n=1 48h” value came to 6.7%.

On to `COc1ccc(S(=O)(=O)N2CCN(Cc3ccc(C)cc3)c3ncccc32)cc1` [SN00790428], for which the “% Inhibition n=1 48h” value came out at 10.3%.

For the compound `O=S(=O)(c1ccc(F)cc1)N1CCN=C1N1CCCCC1` [SN00790442], the “% Inhibition n=1 48h” value came out at 15.7%.

Consider `O=C(Nc1cccc(F)c1)c1nnc(C2CCCN2C(=O)Nc2cccc(C(F)(F)F)c2)s1` (stereo not shown) [SN00790473], for which the “% Inhibition n=1 48h” value came to 8.5%.

Regarding `Cc1ccc(NC(=O)c2nnc(C3CCCN3C(=O)NC3CCCC3)s2)cc1` (stereo not shown) [SN00790483], the “% Inhibition n=1 48h” value was found to be 4.4%.

Consider `CCOc1ccc(-n2c(=O)c3sc4ncccc4c3n(CC(=O)NC3CCCCC3)c2=O)cc1` [SN00790499], for which the “% Inhibition n=1 48h” value is given as 13.5%.

`CCOc1ccc(-n2c(=O)c3sc4ncccc4c3n(CC(=O)N3CCCCC3)c2=O)cc1` [SN00790501]: the “% Inhibition n=1 48h” value was determined as 5.1%.

As to `CSc1ccc(CNC(=O)C2CCN(S(=O)(=O)c3ccc(-c4ccn[nH]4)o3)CC2)cc1` [SN00790551], the “% Inhibition n=1 48h” value worked out at 11.7%.

`O=c1c2cc(-c3cccs3)nn2ccn1Cc1nc(-c2cccc(F)c2)no1` [SN00790579]: the “% Inhibition n=1 48h” value is 8.1%.

Turning to `Cc1ccc(Cn2nnc3c(=O)n(Cc4nc(-c5ccccc5)no4)cnc32)cc1` [SN00790594], the “% Inhibition n=1 48h” value worked out at 2.1%.

On to `COc1ccccc1-c1noc(Cn2cnc3c(nnn3Cc3ccccc3)c2=O)n1` [SN00790613], for which the “% Inhibition n=1 48h” value worked out at 6.5%.

Regarding `Cc1ccccc1CS(=O)(=O)Cc1ccc(-c2nc(-c3ccc(Br)cc3)no2)o1` [SN00790667], the “% Inhibition n=1 48h” value is listed as 0.0%.

For `O=C(CC1COc2ccccc2N1Cc1ccccc1)N1CCc2ccccc2C1` (stereo not shown) [SN00790679], the “% Inhibition n=1 48h” value turned out to be 0.0%.

For the compound `CN1c2ccccc2OCC1CC(=O)Nc1ccc(F)cc1` (stereo not shown) [SN00790682], the “% Inhibition n=1 48h” value came to 7.6%.

Turning to `CCCc1nnc(C(=O)Nc2cccc(C(=O)NCc3c[nH]nc3C)c2)s1` [SN00790723], the “% Inhibition n=1 48h” value was determined as 0.0%.

Take `CCOc1ccc(CNC(=O)c2cccc(NC(=O)c3nnc(C4CC4)s3)c2)cc1` [SN00790732]: the “% Inhibition n=1 48h” value is 0.0%.

The assay is the same for the next values; noted with them: 48 h, re-assessment.
Take `CCc1nc(-c2cc(S(=O)(=O)N(C)c3cccc(C)c3)c(C)s2)no1` [SN00789104]: the “% Inhibition n=2 48h” value stood at 12.8%.
